From patent publication US20240327462A1, “SHORT PEPTIDES, PHARMACEUTICAL COMPOSITIONS COMPRISING THE SAME, AND USES THEREOF IN TREATING NEUROLOGICAL DISEASES” (FU JEN CATHOLIC UNIVERSITY, priority 2023, published 2024)

Columns and labels:
ALS SOD1G93A mice [1] = assay: Denervation of neuromuscular junction (NMJ) in ALS SOD1G93A mice; type: in vivo; conditions: 250 ug (about 10 mg/Kg) i.v. weekly from day 60; gastrocnemius muscle of 75-day-old mice; vs PBS-injected mouse
Protocol: (§1) Transgenic mice of the congenic strain ALS SOD1^G93A carrying human SOD1 with the pathogenic G93A mutation (a mouse model of ALS that developed stereotyped phenotypes resembling the symptoms in ALS patients) were purchased from The Jackson Laboratory (JAX). The present peptide (i.e., FD1, FD2, FD3 or FD4) was initiated to inject intravenously in an amount of 250 ug (about 10 mg/Kg) into 60-day-old ALS SOD1^G93A mice. Injection was performed weekly. Injection of PBS served as a control group. The treated mice were monitored daily and analyzed via video tracking software.
To study the denervation of NMJ, the gastrocnemius muscles were extracted from 75-day-old ALS SOD1^G93A mice received with either PBS (control) or the present peptide (FD1, FD2, FD3 or FD4) and analyzed by immunostaining. In brief, the gastrocnemius muscles fixed with paraformaldehyde (PFA) were mounted on glass slides and treated with 2% TRITON™ for one hour. After blocking with PBS containing 5% bovine serum albumin (BSA) for 2 hours, the antibody against either synaptic vesicle protein (synapsin) or alpha-Bungarotoxin (α-BTX) was added to the slides, followed by incubating at 4° C. for 16 hours. The slides were washed with PBS containing 2% TRITON™ for three times, and then Cy2-conjugated anti-rabbit antibody and ALEXA FUOR™ 647-conjugated anti-mouse antibody were respectively added to the slides, followed by incubating at 4° C. for 16 hours. The slides were washed with PBS containing 2% TRITON™ for three times. The axon terminal of motoneurons via synapsin labeled by green fluorescent signal, while detected the acetylcholine receptor on motor endplates via α-BTX labeled by red fluorescent signal. […]. The percentage of yellow signal (green signal overlapped with red signal) among total red signal shown on the 600× magnified image area (400×400 pixels) of muscle sample from PBS- and peptide-injected SOD1-G93A ALS mouse was calculated using software. Each experiment was calculated from 13-15 images.

[2] = system: phosphorylated cofilin (p-cofilin); assay: Western blot of phosphorylated cofilin (p-cofilin) in treated NSC34 cells; type: cell-based, mouse; conditions: NSC34 cells in NogoA-overexpressed Sol8 CM with peptide, compared to PBS control normalized as 1
Protocol: (§2) NSC34 cells (mouse Neuroblastoma x Spinal Cord-34 cell line) (RRID:CVCL_D356) were cultured in DMEM medium containing 10% FBS, 100 units/ml penicillin and 1% streptomycin. To investigate the effect of the present peptides (including FD1, FD2, FD3 and FD4) on neurons, NSC34 cells were cultivated in differentiation medium (DMEM medium containing 2.5% FBS, 100 units/ml penicillin and 1% streptomycin) for 24 hours, and then continued cultivating in CM obtained from culturing Sol8-NogoA cells (Sol8-NogoA CM) with or without addition of the present peptide (i.e., FD1, FD2, FD3 or FD4) in an amount of 66 ng/ml. The CM with or without containing the present peptide was refreshed daily. Cells were fixed with paraformaldehyde (PFA) for 48 hours, followed by measuring the length of neurite outgrowth using software based the neurites shown on microscopic image. Each data was averaged from three independent experiments and the length presented in each time was averaged from more than 100 counting cells. The effect of the present peptide on improving neurite outgrowth was determined by comparing the neurite length of NSC34 cells treated with the present peptide in Sol8-NogoA CM with that of NSC34 cells treated with phosphate buffered saline (PBS; serving as a control group) in Sol8-NogoA CM.
The total proteins extracted from treated NSC34 cells were analyzed by sodium dodecyl-sulfate polyacrylamide gel electrophoresis (SDS-PAGE) on a 12% polyacrylamide gel. After electrophoresis, western blotting was performed. The protein levels of phosphorylated cofilin (p-cofilin) and alpha-tubulin contained in NSC34 cells cultured in medium with addition of either PBS (served as control) or the present peptide (i.e., FD1, FD2, FD3 or FD4) were determined using antibodies specifically against p-cofilin and alpha-tubulin, respectively. The intensity shown on the blot was quantified by software. Each data was averaged from three independent experiments. The relative intensity among groups was based on the comparison with that of control group set as 1.

ALS SOD1G93A mice [3] = assay: Moving capability of ALS model mice (SOD1 G93A); type: in vivo, mouse; conditions: 250 ug (about 10 mg/Kg) i.v. weekly from day 60; measured at 124 days after birth; vs PBS-injected control ALS mice
Protocol: as §1
The moving capability of ALS model mice (SOD1 G93A) injected with PBS or the present peptide (i.e., FD1, FD2, FD3 or FD4) was determined via measuring the moving trajectory of each treated mouse at 124 days after birth.

[4] = system: Tg(mnxl:GFP) zebrafish embryos; assay: Axonal branching of motor neurons in Tg(mnxl:GFP) zebrafish embryos; type: in vivo; conditions: microinjected into brain chamber at 20 hpf, examined at 30 hpf; compared to untreated and 16-a.a.-injected control groups
Protocol: The branched primary motor neurons (PMN) derived from caudal primary (CaP) motoneurons located at somites from 11th to 20th of Tg(mnxl:GFP) zebrafish embryos at 30 hours post fertilization (hpf) was examined. The untreated embryos served as control group, the embryos injected with an arbitrary non-functional 16 a.a. served as mock control group, while experimental groups were embryos injected with FD1, FD2, FD3 or FD4. […] Each data was averaged from three independent experiments.
The PBS and present peptides (i.e., FD1, FD2, FD3 and FD4) were respectively microinjected into the brain chamber of Tg (mnxl:GFP) embryos at 20 hpf. After 10 hours, the control embryos, mock control embryos and experimental embryos were monitored by anatomic microscope equipped with fluorescence system and digital camera.

NSC34 cells = assay: Neurite outgrowth of NSC34 cells cultured in Sol8-NogoA conditioned medium; type: cell-based, mouse; conditions: Sol8-NogoA CM with peptide 66 ng/ml, 48 hours; PBS in Sol8-NogoA CM 53.6 μm, PBS in Sol8 CM 99.4 μm
Protocol: . After 24-48 hours, the supernatant containing viral particles was collected and centrifuged at a speed of 1,250 rpm, followed by adding to Sol8 cells (ATCC, CRL-2174) pretreated with 8 μg/ml POLYBRENE®. 24 hour later, the fresh DMEM medium containing 10% fetal bovine serum (FBS), 100 units/ml penicillin, 1% streptomycin and 4 ug/ml puromycin was added to the Sol8 cells so as to obtain NogoA-overexpressed Sol8 cells.
The wild-type Sol8 cells and NogoA-overexpressed Sol8 cells (Sol8-NogoA cells) were respectively cultured and differentiated in DMEM medium containing 10% FBS, 100 units/ml penicillin and 1% streptomycin. Two days later, 1 μg/μl of doxycycline was added to the medium so as to induce the expression of target genes. The culture medium was collected and the fresh medium containing doxycycline was added to the Sol8-NogoA cells every 24 hours. The collected culture medium was then centrifuged at a speed of 3,000 rpm for 5 minutes at room temperature, and the supernatant was harvested therefrom served as CM for the following assays.
as §2

ALS SOD1G93A mice [5] = assay: Survival of ALS SOD1G93A mice; type: in vivo, mouse; conditions: 250 ug (about 10 mg/Kg) i.v. weekly from day 60; for cumulated survival rate compared to PBS-injected control mice: 5 mice per group vs 7 PBS controls; for average survival days: 5 mice per group, PBS control 130.0
Protocol: as §1
The initial total number of ALS mice in each group (7 and 5 samples for control and FD-treated groups, respectively) was set as a 100% survival rate. During experimental period, once the ALS mouse was dead, the number and its survival days were recorded, and the cumulative survival rate was counted. When all ALS mice within the experimental group were dead, the cumulative survival rate was considered as 0%. In case that either the weight loss of a mouse was greater than 20% of original or a mouse that was not capable to eat and drink normally, euthanasia was performed and considered it as a non-survival sample. The survival days for each group were averaged from seven samples for PBS-injected control group and five samples for FD-injected experimental groups.

Sequence	percentage of co-localized synapsin-1 and α-BTX (NMJ integrity) (ALS SOD1G93A mice [1])	p-cofilin protein level [2]	moving distance (ALS SOD1G93A mice [3])	percentage of zebrafish embryos exhibiting branched motor neurons [4]	neurite length of NSC34 cells (NSC34 cells)	cumulated survival rate compared to PBS-injected control mice (ALS SOD1G93A mice [5])	average survival days (ALS SOD1G93A mice [5])
WEAFARGTKALMRQVV [FD4, mutant of FD1, D13 substituted with R and E14 with Q]	significantly higher	significantly reduced	significantly improved	significantly increased	95.8 μm	longer survival time	139.0 days
WEAFARGTKALMDEVV [FD1, short peptide derived from human PGK1, 16 a.a]	significantly higher	significantly reduced	significantly improved	significantly increased	89.2 μm	longer survival time	140.0 days
WEAFARGTRALMDEVV [FD3, mutant of FD1, lysine at position 9 substituted with arginine]	significantly higher	significantly reduced	significantly improved	significantly increased	88.2 μm	not shown difference	130.8 days
WEAFARGTKPLMDEVV [FD2, mutant of FD1, alanine at position 10 substituted with proline]	significantly higher	significantly reduced	significantly improved	significantly increased	66.6 μm	longer survival time	147.0 days
